The molecules below were run against brain NOP receptors (hypothalamus vs striatum) (Rattus norvegicus, UniProt P35370) (assay: Ligand brain uptake in rat, ex vivo LC-MS/MS). Details: 3 μg/kg i.v., non-anesthetized, 10 min stated for (S)-10a.
brain NOP receptors (hypothalamus vs striatum), sequence (P35370 whole entry): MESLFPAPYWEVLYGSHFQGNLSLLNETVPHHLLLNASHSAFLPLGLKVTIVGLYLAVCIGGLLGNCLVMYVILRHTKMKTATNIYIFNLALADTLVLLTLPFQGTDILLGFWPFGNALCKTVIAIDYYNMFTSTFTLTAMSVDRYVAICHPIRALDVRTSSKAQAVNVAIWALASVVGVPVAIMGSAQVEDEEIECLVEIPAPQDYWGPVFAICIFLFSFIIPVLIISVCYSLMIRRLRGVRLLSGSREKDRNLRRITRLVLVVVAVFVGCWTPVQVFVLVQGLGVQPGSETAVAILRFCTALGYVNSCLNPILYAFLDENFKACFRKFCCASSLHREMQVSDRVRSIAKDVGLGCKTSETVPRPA

Structure (SMILES)	brain uptake
CC(C)N(C)C(=O)[C@@H](Cc1ccccc1F)CN1CCC2(CC1)OCCc1cc(F)sc12 [(S)-10a, (2S)-2-[(2-Fluorophenyl)methyl]-3-(2-fluorospiro[4,5-dihydrothieno[2,3-c]pyran-7,4'-piperidine]-1'-yl)-N-isopropyl-N-methyl-propanamide]	453 % SUV
CNC(=O)[C@@H](Cc1ccccc1Cl)CN1CCC2(CC1)OCCc1cc(F)sc12 [(S)-10b, (2S)-2-[(2-Chlorophenyl)methyl]-3-(2-fluorospiro[4,5-dihydrothieno[2,3-c]pyran-7,4'-piperidine]-1'-yl)-N-methyl-propanamide]	~ 280 % SUV
CNC(=O)[C@@H](Cc1ccccc1F)CN1CCC2(CC1)OCCc1cc(F)sc12 [(S)-10c, (2S)-2-[(2-Fluorophenyl)methyl]-3-(2-fluorospiro[4,5-dihydrothieno[2,3-c]pyran-7,4'-piperidine]-1'-yl)-N-methyl-propanamide]	~ 280 % SUV
